Measurements as given in patent US20050203013A1, “Methods for inhibiting vascular permeability” (priority 2002, published 2005).

What was measured:
liver regeneration = test: Liver regeneration after 2/3 hepatectomy; type: in vivo, C57 black male mice; conditions: post-operative day 8
Protocol: C57 black male mice underwent a ⅔ hepatectomy through a midline incision after general anesthesia with isoflourane. Free and conjugated TNP-470 (30 mg/kg) was given s.c. every other day for 8 days beginning on the day of surgery. The liver was harvested on the 8th day, weighed and analyzed for histology.

HMVEC-d cells = test: Cell proliferation assay, HMVEC-d; type: cell-based, Human
Protocol: HMVEC-d cells were trypsinized (0.05% trypsin) and resuspended (15,000 cells/ml) in EBM-2 supplemented with 5% fetal bovine serum (FBS), plated onto gelatinized 24-well culture plates (0.5 ml/well), and incubated for 24 hours (37° C., 5% CO2). The media was replaced with 0.5 ml of complete media (serum and growth factors; EGM-2 MV), and test substances were applied. Cells were challenged with free or conjugated TNP-470 (0.01 pg/ml to 1 mg/ml TNP-470-equivalent concentration). Control cells were grown with or without growth factors. U87 glioblastoma cells were washed with PBS, trypsinized and resuspended (5,000 cells/ml) in DMEM supplemented with 10% FBS, plated onto 24-well culture plates (0.5 ml/well), and incubated for 24 hours (37° C., 5% CO2). The media was replaced with 0.5 ml of DMEM and 10% FBS, and the test sample applied. Cells were challenged with free or conjugated TNP-470 (0.01 pg/ml to 1 mg/ml TNP-470-equivalent concentration). Control cells were grown with or without 10% FBS. Both cell types were incubated for 72 hours, followed by trypsinization, resuspension in Hematall (Fisher Scientific, Pittsburgh, Pa.), and counted in a Coulter counter.

[1] = system: VEGF-induced skin permeability; test: Modified Miles assay with VEGF dose response; type: in vivo, C57 mice; conditions: 30 mg/kg/d s.c. for 3 days, intradermal VEGF
Excerpt: TNP-470, HPMA copolymer-TNP-470 and angiostatin all inhibited Evan's blue extravasation into A2058 melanoma (P<0.03 versus control), murine Lewis lung carcinoma (P<0.05), MCF-7 breast carcinoma (P<0.04), MDA-MB-231 breast carcinoma (P<0.05) and BXPC3 pancreatic adenocarcinoma (P<0.04) by 40-90% compared to control tumors treated with saline (FIG. 16B). […] In order to test the effect of VEGF secreted from the tumor and the ability of TNP-470 to inhibit the permeability induced by such amount of VEGF, a modified Miles assay using a dose response of VEGF was used. Groups of 8 week old C57 mice were treated with TNP-470 (30 mg/kg/d s.c. for 3 days) or with saline. Then we injected 100 μl 1% Evan's Blue i.v. and after 10 min injected VEGF intradermally at different concentrations. We collected skin punch biopsies and extracted dye with formamide at RT over 5 days and read the extracts at 620 nm (FIG. 16C).

skin vessel permeability = test: Miles vascular permeability assay (Example 3); type: in vivo, SCID mice
Protocol: SCID mice were injected subcutaneously (s.c.) with TNP-470 or HPMA copolymer-TNP-470 (30 mg/Kg TNP-equiv.) for three days, with Y27632 (50 nM s.c.) for 11 days, with angiostatin (200 mg/kg/day s.c.) for five days, or with saline (250 μl s.c.) for 5 days (n=12) prior to performing the Miles assay ([…] et al., 1996; Miles and Miles, 1952; Streit et al., 2000). Briefly, Evan's blue dye (100 μl of a 1% solution in 0.9% NaCl) was injected intravenously (i.v.) into mice. After 10 minutes, 50 μl of human VEGF165 (1 ng/μl), PAF (100 μM), CNF-1 (100 ng), histamine (1.2 μg/ml) or PBS (50 ul) were injected intradermally into the pre-shaved back skin. After 20 minutes, the animals were euthanized and an area of skin that included the blue spot resulting from leakage of the dye was removed. Evan's blue dye was extracted from the skin by incubation with formamide for 5 days at room temperature, and the absorbance of extracted dye was measured at 620 nm using a spectrophotometer. The unpaired Student t test was used for statistical analysis.

chick aortic rings = test: Chick aortic ring assay; type: cell-based
Protocol: Aortic arches were dissected from day-14 chick embryos and cut into cross-sectional fragments, everted to expose the endothelium, and explanted in Matrigel. When cultured in serum-free MCDB-131 medium, endothelial cells outgrow and three-dimensional vascular channel formation occurred within […]. Free and conjugated TNP-470 were added to the culture.

Water solubility = type: physicochemical
Protocol: To evaluate the biological activity of HPMA-TNP-470, the following assays were performed: […]

SMILES: CO[C@@H]1[C@H](OC(=O)NC(=O)CCl)CC[C@]2(CO2)[C@H]1[C@@]1(C)O[C@@H]1CC=C(C)C [TNP-470]
- average liver size (liver regeneration): 0.7 g
- endothelial cell vs tumor cell inhibitory concentration difference (HMVEC-d cells; HMVEC-d vs U87): 4 orders of magnitude
- concentration inhibiting growth factor-induced proliferation without cytotoxicity (HMVEC-d cells; HMVEC-d, 72 hours): ≥ 1 pg/mL
- cytotoxic concentration (HMVEC-d cells; HMVEC-d, 72 hours): higher than 1 μg/ml
- VEGF dose up to which permeability was inhibited [1]: up to 25 ng
- CNF-1-induced Evan's blue-albumin extravasation (skin vessel permeability; CNF-1 intradermal): inhibited
- decrease of PAF-induced permeability (skin vessel permeability; PAF intradermal): 75%
- low-level permeability induced by intradermal injections of PBS (skin vessel permeability; PBS intradermal): blocked
- inhibition of Evan's blue dye extravasation from VPF/VEGF injection sites (skin vessel permeability; VPF/VEGF intradermal): ~70%
- decrease of histamine-induced permeability (skin vessel permeability; histamine intradermal): 80%
- concentration showing efficacy (reduced number and length of vascular sprouts) (chick aortic rings): 50 pg/mL
- concentration that completely prevented outgrowth (chick aortic rings): 100 pg/mL
- water solubility (Water solubility): not water-soluble
